Test results reported in ChEMBL document CHEMBL1148029, “Synthesis and radiopharmacological characterization of 2beta-carbo-2'-[18F]fluoroethoxy-3beta-(4-bromo-phenyl)tropane ([18F]MCL-322) as a PET radiotracer for imaging the dopamine transporter (DAT)” (Bioorg Med Chem, 2007).

Key:
Brain = experiment: Biodistribution in Wistar rat rest of brain at 300 uCi, iv after 60 mins in presence of GBR-12909; format: ADME, organism-based; conditions: in vivo, 1 h
Blood [1] = experiment: Biodistribution in Wistar rat blood at 300 uCi, iv after 60 mins in presence of citalopram; format: ADME, organism-based; conditions: in vivo, 1 h
Harderian gland [2] = experiment: Biodistribution in Wistar rat harderian glands at 300 uCi, iv after 5 mins; format: ADME, organism-based; conditions: in vivo
[3] = Biodistribution in Wistar rat brown fat at 300 uCi, iv after 120 mins; format: ADME, organism-based, Brown adipose tissue; conditions: in vivo, 2 h
Cerebellum [4] = experiment: Biodistribution in Wistar rat cerebellum at 300 uCi, iv after 60 mins in presence of nisoxetine; format: ADME, organism-based; conditions: in vivo, 1 h
Testes [5] = experiment: Biodistribution in Wistar rat testes at 300 uCi, iv after 60 mins; format: ADME, organism-based, Testis; conditions: in vivo, 1 h
Femur [6] = experiment: Biodistribution in Wistar rat femur at 300 uCi, iv after 120 mins; format: ADME, organism-based; conditions: in vivo, 2 h
Blood [7] = experiment: Biodistribution in Wistar rat blood at 300 uCi, iv after 60 mins in presence of nisoxetine; format: ADME, organism-based; conditions: in vivo, 1 h
Hippocampus [8] = experiment: Biodistribution in Wistar rat hippocampus at 300 uCi, iv after 60 mins; format: ADME, organism-based; conditions: in vivo, 1 h
[9] = Biodistribution in Wistar rat fat at 300 uCi, iv after 60 mins; format: ADME, organism-based, Adipose tissue; conditions: in vivo, 1 h
[10] = Biodistribution in Wistar rat rest of brain at 300 uCi, iv after 60 mins; format: ADME, organism-based; conditions: in vivo, 1 h
Pancreas [11] = experiment: Biodistribution in Wistar rat pancreas at 300 uCi, iv after 120 mins; format: ADME, organism-based; conditions: in vivo, 2 h
Lung [12] = experiment: Biodistribution in Wistar rat lung at 300 uCi, iv after 60 mins; format: ADME, organism-based; conditions: in vivo, 1 h
Femur [13] = experiment: Biodistribution in Wistar rat femur at 300 uCi, iv after 240 mins; format: ADME, organism-based; conditions: in vivo, 4 h
Liver [14] = experiment: Biodistribution in Wistar rat liver at 300 uCi, iv after 5 mins; format: ADME, organism-based; conditions: in vivo
[15] = Biodistribution in Wistar rat fat at 300 uCi, iv after 5 mins; format: ADME, organism-based, Adipose tissue; conditions: in vivo
[16] = Biodistribution in Wistar rat rest of brain at 300 uCi, iv after 240 mins; format: ADME, organism-based; conditions: in vivo, 4 h
[17] = Biodistribution in Wistar rat brown fat at 300 uCi, iv after 60 mins; format: ADME, organism-based, Brown adipose tissue; conditions: in vivo, 1 h
Testes [18] = experiment: Biodistribution in Wistar rat testes at 300 uCi, iv after 120 mins; format: ADME, organism-based, Testis; conditions: in vivo, 2 h
Lung [19] = experiment: Biodistribution in Wistar rat lung at 300 uCi, iv after 240 mins; format: ADME, organism-based; conditions: in vivo, 4 h
Liver [20] = experiment: Biodistribution in Wistar rat liver at 300 uCi, iv after 240 mins; format: ADME, organism-based; conditions: in vivo, 4 h
Blood [21] = experiment: Biodistribution in Wistar rat blood at 300 uCi, iv after 60 mins in presence of GBR-12909; format: ADME, organism-based; conditions: in vivo, 1 h
Hippocampus [22] = experiment: Biodistribution in Wistar rat hippocampus at 300 uCi, iv after 60 mins in presence of citalopram; format: ADME, organism-based; conditions: in vivo, 1 h
Striatum [23] = experiment: Biodistribution in Wistar rat striatum at 300 uCi, iv after 60 mins in presence of nisoxetine; format: ADME, organism-based; conditions: in vivo, 1 h
Hippocampus [24] = experiment: Biodistribution in Wistar rat hippocampus at 300 uCi, iv after 5 mins; format: ADME, organism-based; conditions: in vivo
[25] = Biodistribution in Wistar rat brown fat at 300 uCi, iv after 240 mins; format: ADME, organism-based, Brown adipose tissue; conditions: in vivo, 4 h
Hippocampus [26] = experiment: Biodistribution in Wistar rat hippocampus at 300 uCi, iv after 60 mins in presence of GBR-12909; format: ADME, organism-based; conditions: in vivo, 1 h
[27] = Biodistribution in Wistar rat brown fat at 300 uCi, iv after 20 mins; format: ADME, organism-based, Brown adipose tissue; conditions: in vivo
Adrenal [28] = experiment: Biodistribution in Wistar rat adrenal gland at 300 uCi, iv after 5 mins; format: ADME, organism-based, Adrenal tissue; conditions: in vivo
[29] = Biodistribution in Wistar rat rest of brain at 300 uCi, iv after 5 mins; format: ADME, organism-based; conditions: in vivo
Thymus [30] = experiment: Biodistribution in Wistar rat thymus at 300 uCi, iv after 240 mins; format: ADME, organism-based; conditions: in vivo, 4 h
Spleen [31] = experiment: Biodistribution in Wistar rat spleen at 300 uCi, iv after 120 mins; format: ADME, organism-based; conditions: in vivo, 2 h
Plasma = experiment: Metabolic stability in Wistar rat plasma assessed as polar metabolite level at 1 mCi, iv after 1.5 mins; format: ADME, organism-based; conditions: in vivo, 0.025 h
Adrenal [32] = experiment: Biodistribution in Wistar rat adrenal gland at 300 uCi, iv after 60 mins; format: ADME, organism-based, Adrenal tissue; conditions: in vivo, 1 h
Blood [33] = experiment: Biodistribution in Wistar rat blood at 300 uCi, iv after 120 mins; format: ADME, organism-based; conditions: in vivo, 2 h
Blood [34] = experiment: Biodistribution in Wistar rat blood at 300 uCi, iv after 240 mins; format: ADME, organism-based; conditions: in vivo, 4 h
Testes [35] = experiment: Biodistribution in Wistar rat testes at 300 uCi, iv after 240 mins; format: ADME, organism-based, Testis; conditions: in vivo, 4 h
Harderian gland [36] = experiment: Biodistribution in Wistar rat harderian glands at 300 uCi, iv after 20 mins; format: ADME, organism-based; conditions: in vivo
Cortex [37] = experiment: Biodistribution in Wistar rat cortex at 300 uCi, iv after 60 mins in presence of GBR-12909; format: ADME, organism-based; conditions: in vivo, 1 h
Hippocampus [38] = experiment: Biodistribution in Wistar rat hippocampus at 300 uCi, iv after 20 mins; format: ADME, organism-based; conditions: in vivo
Liver [39] = experiment: Biodistribution in Wistar rat liver at 300 uCi, iv after 120 mins; format: ADME, organism-based; conditions: in vivo, 2 h
Kidney = experiment: Biodistribution in Wistar rat kidney at 300 uCi, iv after 120 mins; format: ADME, organism-based; conditions: in vivo, 2 h
Cerebellum [40] = experiment: Biodistribution in Wistar rat cerebellum at 300 uCi, iv after 120 mins; format: ADME, organism-based; conditions: in vivo, 2 h
Testes [41] = experiment: Biodistribution in Wistar rat testes at 300 uCi, iv after 20 mins; format: ADME, organism-based, Testis; conditions: in vivo
Muscle tissue [42] = experiment: Biodistribution in Wistar rat muscle at 300 uCi, iv after 240 mins; format: ADME, organism-based; conditions: in vivo, 4 h
Pancreas [43] = experiment: Biodistribution in Wistar rat pancreas at 300 uCi, iv after 240 mins; format: ADME, organism-based; conditions: in vivo, 4 h
Harderian gland [44] = experiment: Biodistribution in Wistar rat harderian glands at 300 uCi, iv after 240 mins; format: ADME, organism-based; conditions: in vivo, 4 h
[45] = Biodistribution in Wistar rat hair and skin at 300 uCi, iv after 60 mins; format: ADME, organism-based; conditions: in vivo, 1 h
[46] = Biodistribution in Wistar rat fat at 300 uCi, iv after 120 mins; format: ADME, organism-based, Adipose tissue; conditions: in vivo, 2 h
Striatum [47] = experiment: Biodistribution in Wistar rat striatum at 300 uCi, iv after 60 mins; format: ADME, organism-based; conditions: in vivo, 1 h
Femur [48] = experiment: Biodistribution in Wistar rat femur at 300 uCi, iv after 20 mins; format: ADME, organism-based; conditions: in vivo
Spleen [49] = experiment: Biodistribution in Wistar rat spleen at 300 uCi, iv after 20 mins; format: ADME, organism-based; conditions: in vivo
[50] = Biodistribution in Wistar rat hair and skin at 300 uCi, iv after 5 mins; format: ADME, organism-based; conditions: in vivo
Lung [51] = experiment: Biodistribution in Wistar rat lung at 300 uCi, iv after 120 mins; format: ADME, organism-based; conditions: in vivo, 2 h
Adrenal [52] = experiment: Biodistribution in Wistar rat adrenal gland at 300 uCi, iv after 20 mins; format: ADME, organism-based, Adrenal tissue; conditions: in vivo
[53] = Biodistribution in Wistar rat hair and skin at 300 uCi, iv after 20 mins; format: ADME, organism-based; conditions: in vivo
Cerebellum [54] = experiment: Biodistribution in Wistar rat cerebellum at 300 uCi, iv after 20 mins; format: ADME, organism-based; conditions: in vivo
Muscle tissue [55] = experiment: Biodistribution in Wistar rat muscle at 300 uCi, iv after 20 mins; format: ADME, organism-based; conditions: in vivo
Cortex [56] = experiment: Biodistribution in Wistar rat cortex at 300 uCi, iv after 60 mins; format: ADME, organism-based; conditions: in vivo, 1 h
Pancreas [57] = experiment: Biodistribution in Wistar rat pancreas at 300 uCi, iv after 60 mins; format: ADME, organism-based; conditions: in vivo, 1 h
Thymus [58] = experiment: Biodistribution in Wistar rat thymus at 300 uCi, iv after 120 mins; format: ADME, organism-based; conditions: in vivo, 2 h

In the case of `CN1C2CCC1C(C(=O)OCC[18F])C(c1ccc(Br)cc1)C2` (stereo unspecified), the Drug uptake (Brain) is reported as 1.07 % ID/g, the Drug uptake (Blood [1]) is reported as 0.052 % ID/g and the Drug uptake (Harderian gland [2]) is reported as 1.46 % ID/g. The Drug uptake [3] was 0.21 % ID/g, the Drug uptake (Cerebellum [4]) was 0.63 % ID/g and the Drug uptake (Testes [5]) was 0.5 % ID/g. The Drug uptake (Femur [6]) was 0.1 % ID/g, the Drug uptake (Blood [7]) was 0.04 % ID/g and the Drug uptake (Hippocampus [8]) was 1.12 % ID/g. It also gave a Drug uptake [9] of 0.27 % ID/g, a Drug uptake [10] of 1.1 % ID/g and a Drug uptake (Pancreas [11]) of 0.29 % ID/g. It also gave a Drug uptake (Lung [12]) of 1.14 % ID/g, a Drug uptake (Femur [13]) of 0.07 % ID/g and a Drug uptake (Liver [14]) of 3.2 % ID/g. It also gave a Drug uptake [15] of 4.64 % ID/g, a Drug uptake [16] of 0.27 % ID/g and a Drug uptake [17] of 0.39 % ID/g. The Drug uptake (Testes [18]) was 0.39 % ID/g, the Drug uptake (Lung [19]) was 0.27 % ID/g and the Drug uptake (Liver [20]) was 15.2 % ID/g. For the same molecule, the Drug uptake (Blood [21]) was 0.04 % ID/g, the Drug uptake (Hippocampus [22]) was 1.36 % ID/g and the Drug uptake (Striatum [23]) was 4.18 % ID/g. For the same molecule, the Drug uptake (Hippocampus [24]) was 2.37 % ID/g, the Drug uptake [25] was 0.08 % ID/g and the Drug uptake (Hippocampus [26]) was 1.06 % ID/g. It also gave a Drug uptake [27] of 0.78 % ID/g, a Drug uptake (Adrenal [28]) of 3.57 % ID/g and a Drug uptake [29] of 2.53 % ID/g. It also gave a Drug uptake (Thymus [30]) of 0.08 % ID/g, a Drug uptake (Spleen [31]) of 0.29 % ID/g and a Stability (Plasma) of 21%. It also gave a Drug uptake (Adrenal [32]) of 0.58 % ID/g, a Drug uptake (Blood [33]) of 0.03 % ID/g and a Drug uptake (Blood [34]) of 0.03 % ID/g. It also gave a Drug uptake (Testes [35]) of 0.17 % ID/g, a Drug uptake (Harderian gland [36]) of 2.04 % ID/g and a Drug uptake (Cortex [37]) of 0.94 % ID/g. It also gave a Drug uptake (Hippocampus [38]) of 1.99 % ID/g, a Drug uptake (Liver [39]) of 15.7 % ID/g and a Drug uptake (Kidney) of 1.84 % ID/g. It also gave a Drug uptake (Cerebellum [40]) of 0.24 % ID/g, a Drug uptake (Testes [41]) of 0.45 % ID/g and a Drug uptake (Muscle tissue [42]) of 0.04 % ID/g. The Drug uptake (Pancreas [43]) was 0.13 % ID/g, the Drug uptake (Harderian gland [44]) was 0.93 % ID/g and the Drug uptake [45] was 0.29 % ID/g. It also gave a Drug uptake [46] of 0.16 % ID/g, a Drug uptake (Striatum [47]) of 3.71 % ID/g and a Drug uptake (Femur [48]) of 0.42 % ID/g. For the same molecule, the Drug uptake (Spleen [49]) was 1.41 % ID/g, the Drug uptake [50] was 0.47 % ID/g and the Drug uptake (Lung [51]) was 0.54 % ID/g. For the same molecule, the Drug uptake (Adrenal [52]) was 1.21 % ID/g, the Drug uptake [53] was 0.47 % ID/g and the Drug uptake (Cerebellum [54]) was 1.37 % ID/g. It also gave a Drug uptake (Muscle tissue [55]) of 0.33 % ID/g, a Drug uptake (Cortex [56]) of 1 % ID/g and a Drug uptake (Pancreas [57]) of 0.54 % ID/g. For the same molecule, the Drug uptake (Thymus [58]) was 0.21 % ID/g.
